Laboratory results taken from patent US20240199677A1, “GLYCOSYLTRANSFERASE INHIBITORS” (CALIFORNIA INSTITUTE OF TECHNOLOGY, priority 2018, published 2024).
Converted amounts (≈) assume the structure as drawn. Where two headings read alike, the source gives them in different places.

Key:
[1] = Cytotoxicity MTT assay, Vero cells; assay type: cell-based, monkey; conditions: monkey
Method: (§1) Cytotoxicity Assays. Cytotoxicity assays were performed using Vero monkey kidney (ATCC CCL-81) and HepG2 human hepatoblastoma cell (ATCC HB-8065) lines. Vero or HepG2 cells were cultured in 75 cm^2 flasks and transferred to 96-well cell culture plates using ATCC-formulated Eagle's minimum essential medium containing 10% FBS, penicillin, and streptomycin. Serially diluted aliquots of each test compound at concentrations ranging from 0.78-200 μg/mL were added to the cells. […] The plates were incubated and cytotoxic effects were determined via the MTT assay.
(§2) Selected molecules were tested for cytotoxicity (IC50) in cancer and healthy cells via a MTT colorimetric assay.
(§3) Cytotoxicity Assays. For Vero cells: Vero cell was cultured in Complete eagle's minimum essential growth medium (EMEM) containing L-glutamine, sodium pyruvate, minimum essential amino acids, penicillin-streptomycin and 10% fetal bovine serum. Inoculating number of cells were 400,000 cells/mL and a final 40,000 cells/well. After 72 h of exposure of molecules to this cell line at concentrations ranging from 0.78 to 200 μg/mL, the culture medium was changed to complete EMEM without phenol red before addition of yellow tetrazolium dye; MTT. Viability was assessed on the basis of cellular conversion of MTT into a purple formazan product. The absorbance of the colored formazan product was measured at 570 nm by BioTek Synergy HT Spectrophotometer. Linearity of the MTT response to the cell number was determined.

LoVo = test: Cytotoxicity MTT assay, LoVo; assay type: cell-based
Method: as §2
(§4) Each cell was cultured in recommended medium by ATCC, and the IC50 data were obtained with each cell line.

AsPc-1 cells [2] = test: Synergistic assay (checkerboard), 11 and Paclitaxel; assay type: cell-based
Method: (§5) The FIC index was calculated according to the following equation. ΣFIC=FICA+FICB=CA/MICA+CB/MICB where MICA and MICB are MIC of drugs A and B, CA and CB are the concentrations of drugs A and B used in combination. In these interaction studies, ΣFIC of less than 0.5 represents synergistic activity.

AsPc-1 = test: Cytotoxicity MTT assay, AsPc-1; assay type: cell-based
Method: as §2, §4

MDA-MB-435S = test: Cytotoxicity MTT assay, MDA-MB-435S; assay type: cell-based
Method: as §2, §4

HPAF-II = test: Cytotoxicity MTT assay, HPAF-II; assay type: cell-based
Method: as §2, §4

KB = test: Cytotoxicity MTT assay, KB; assay type: cell-based
Method: as §2, §4

Panc-1 = test: Cytotoxicity MTT assay, Panc-1; assay type: cell-based
Method: as §2, §4

SK-OV-3 = test: Cytotoxicity MTT assay, SK-OV-3; assay type: cell-based
Method: as §2, §4

L12210 = test: Cytotoxicity MTT assay, L12210; assay type: cell-based
Method: as §2, §4

C. difficile ATCC43596 = test: Minimum inhibitory concentration assay; conditions: for C. difficile ATCC43596 MIC: 48 h, 37° C.; for MIC: Clostridioides difficile, ATCC43596, 48 h, read-out: C. difficile ATCC43596 MIC
MraY = conditions: read-out: MraY inhibition IC50
AsPc-1 cells [3] = test: Synergistic assay (checkerboard), 11 and Gemcitabine; assay type: cell-based
Method: as §5
These experiments were performed in the same manner as those of Example 7.

C. difficile spores = test: Spore viability testing; assay type: cell-based; conditions: for Inhibition of spore germination: x5 MIC; for Effect on viability of C. difficile spores (CFU): x2 MIC, 24 hours
Vero cells = test: Cytotoxicity MTT assay, Vero cells; assay type: cell-based, monkey
Method: as §1, §2, §3

Caco-2 = test: Cytotoxicity MTT assay, Caco-2; assay type: cell-based; conditions: human
Method: as §2, §4

HepG2 = test: Cytotoxicity MTT assay, HepG2; assay type: cell-based; conditions: human
M. jannaschii AgIH = M. jannaschii AgIH (Methanocaldococcus jannaschii (strain ATCC 43067 / DSM 2661 / JAL-1 / JCM 10045 / NBRC 100440) (Methanococcus jannaschii), UniProt Q58513); conditions: read-out: AgIH inhibition IC50, M. jannaschii AgIH
Hemolysis, sheep blood = assay type: cell-based; conditions: sheep, sheep blood

M. jannaschii AgIH, sequence (Q58513 whole entry, looked up): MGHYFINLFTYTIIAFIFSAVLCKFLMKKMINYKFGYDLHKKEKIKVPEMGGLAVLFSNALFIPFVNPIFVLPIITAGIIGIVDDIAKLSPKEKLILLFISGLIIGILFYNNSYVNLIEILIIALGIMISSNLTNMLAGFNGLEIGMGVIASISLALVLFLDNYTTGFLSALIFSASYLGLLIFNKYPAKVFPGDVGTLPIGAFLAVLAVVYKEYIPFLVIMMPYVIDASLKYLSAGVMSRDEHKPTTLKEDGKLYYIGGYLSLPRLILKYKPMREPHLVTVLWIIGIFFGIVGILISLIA

**Q.** With `CC(=O)O[C@H]1C(=O)[C@@]2(C)[C@H]([C@H](OC(=O)c3ccccc3)[C@]3(O)C[C@H](OC(=O)[C@H](O)[C@@H](NC(=O)c4ccccc4)c4ccccc4)C(C)=C1C3(C)C)[C@]1(OC(C)=O)CO[C@@H]1C[C@@H]2O` [Taxol, Paclitaxel] as the compound, how does the IC50 at 72 h [1] read?
**A.** 190 nM

**Q.** And the IC50 (LoVo; Homo sapiens, LoVo, read-out: Cytotoxicity IC50 LoVo)?
**A.** 57 nM

**Q.** And the IC50 (AsPc-1 cells [2]; Homo sapiens, ASPC1, Paclitaxel alone, AsPc-1 cells, read-out: IC50 B)?
**A.** 550 nM

**Q.** And the “Taxol concentration to kill AsPc-1 cells when combined with 11” value (AsPc-1 cells [2]; as low as, combined with 11)?
**A.** 7 nM

**Q.** What about the IC50 (AsPc-1; Homo sapiens, ASPC1, read-out: Cytotoxicity IC50 AsPc-1) of the same compound?
**A.** 190 nM

**Q.** And the IC50 (MDA-MB-435S; Homo sapiens, MDA-MB-435S, read-out: Cytotoxicity IC50 MDA-MB-435S)?
**A.** 110 nM

**Q.** What about the IC50 (HPAF-II; Homo sapiens, HPAF-II, read-out: Cytotoxicity IC50 HPAF-II) of the same compound?
**A.** 20 nM

**Q.** And the IC50 (KB; Homo sapiens, KB, read-out: Cytotoxicity IC50 KB)?
**A.** 790 nM

**Q.** And the IC50 (Panc-1; Homo sapiens, PANC-1, read-out: Cytotoxicity IC50 Panc-1)?
**A.** 20 nM

**Q.** And the IC50 (SK-OV-3; Homo sapiens, SK-OV-3, read-out: Cytotoxicity IC50 SK-OV-3)?
**A.** 1080 nM

**Q.** What about the IC50 (L12210; read-out: Cytotoxicity IC50 L12210) of the same compound?
**A.** 550 nM

**Q.** Which “C. difficile ATCC43596 MIC” value (C. difficile ATCC43596) does the source give for `CN(CCCN)[C@H](C(=O)O)[C@H](O[C@@H]1O[C@H](CN)[C@@H](O)[C@H]1O)[C@H]1O[C@@H](n2ccc(=O)[nH]c2=O)[C@H](O)[C@@H]1O` [FR-900493 (1), FR-900493, reference compound] here?
**A.** >50 µg/mL

**Q.** What about the IC50 (MraY) of the same compound?
**A.** 25000 nM

**Q.** With `CN(CCCC(=O)NCc1ccc(N2CCC(Oc3ccc(C(F)(F)F)cc3)CC2)cc1)[C@H](C(N)=O)[C@H](O[C@@H]1O[C@H](CN)[C@@H](O)[C@H]1O)[C@H]1O[C@@H](n2ccc(=O)[nH]c2=O)[C@H](O)C1O` (stereo partly drawn) [Compound 12] as the compound, how does the Anti-C. difficile activity (C. difficile ATCC43596) read?
**A.** display anti-C. difficile activity

**Q.** And the MIC (C. difficile ATCC43596)?
**A.** 50 µg/mL (≈ 56.8 µM)

**Q.** With `Nc1ccn([C@@H]2O[C@H](CO)[C@@H](O)C2(F)F)c(=O)n1` [Gemcitabine, reference compound] as the compound, how does the IC50 (AsPc-1 cells [3]; Homo sapiens, ASPC1, Gemcitabine alone, AsPc-1 cells, read-out: IC50 B) read?
**A.** 390 nM

**Q.** And the “Concentration in combination resulting in AsPc-1 cell death” value (AsPc-1 cells [3]; as low as, 11 together with Gemcitabine)?
**A.** 0.977 µM

**Q.** With `Cc1ncc([N+](=O)[O-])n1CCO` [metronidazole, reference compound] as the compound, how does the “Inhibition of spore germination” value (C. difficile spores) read?
**A.** did not inhibit the spore germination

**Q.** What does the source list for `CCCCCCCc1ccc(NC(=O)CCCN(C)[C@H](C(N)=O)[C@H](OC2O[C@H](CN)[C@@H](O)[C@H]2O)[C@H]2O[C@@H](n3ccc(=O)[nH]c3=O)C(O)[C@H]2O)cc1` (stereo partly drawn) [Compound 9]?
**A.** Anti-C. difficile activity (C. difficile ATCC43596): display anti-C. difficile activity; MIC (C. difficile ATCC43596): 25 µg/mL (≈ 34.7 µM); Effect on viability of C. difficile spores (CFU) (C. difficile spores): caused loss of viability of C. difficile spores

**Q.** With Tunicamycin as the compound, how does the IC50 (Vero cells; Table 2, read-out: Vero cells IC50) read?
**A.** 120 nM

**Q.** What about the IC50 (Vero cells; Table 3, 72 h exposure, read-out: Cytotoxicity IC50 Vero) of the same compound?
**A.** 120 nM

**Q.** What about the IC50 (LoVo; human) of the same compound?
**A.** 1700 nM

**Q.** What about the IC50 (AsPc-1; human) of the same compound?
**A.** 460 nM

**Q.** What about the IC50 (Caco-2) of the same compound?
**A.** 950 nM

**Q.** And the “C. difficile ATCC43596 MIC” value (C. difficile ATCC43596)?
**A.** >50 µg/mL

**Q.** And the IC50 (MDA-MB-435S; human)?
**A.** 900 nM

**Q.** What about the IC50 (HPAF-II; human) of the same compound?
**A.** < 98 nM

**Q.** And the IC50 (HepG2)?
**A.** 190 nM

**Q.** And the IC50 (KB; human)?
**A.** 2500 nM

**Q.** What about the IC50 (Panc-1; human) of the same compound?
**A.** 625 nM

**Q.** And the IC50 (SK-OV-3; human)?
**A.** 1850 nM

**Q.** What about the IC50 (L12210; mouse) of the same compound?
**A.** 1700 nM

**Q.** And the IC50 (M. jannaschii AgIH)?
**A.** 13300 nM

**Q.** With `CC(=O)NC[C@H]1CN(c2ccc(N3CCOCC3)c(F)c2)C(=O)O1` [linezolid, reference compound] as the compound, how does the “Inhibition of spore germination” value (C. difficile spores) read?
**A.** did not inhibit the spore germination

**Q.** What does the source list for `CCCCCCCc1ccc(NC(=O)CCCN[C@H](C(N)=O)[C@H](OC2O[C@H](CN)[C@@H](O)[C@H]2O)[C@H]2O[C@@H](n3ccc(=O)[nH]c3=O)C(O)[C@H]2O)cc1` (stereo partly drawn) [Compound 10]?
**A.** IC50 (Vero cells; Primates, Vero, Table 2, read-out: Vero cells IC50): 7080 nM; Anti-C. difficile activity (C. difficile ATCC43596): display anti-C. difficile activity; IC50 (Hemolysis, sheep blood): 70000 nM; Effect on viability of C. difficile spores (CFU) (C. difficile spores): caused loss of viability of C. difficile spores

**Q.** What does the source list for `CN[C@H](CC(C)C)C(=O)N[C@H]1C(=O)N[C@@H](CC(N)=O)C(=O)N[C@H]2C(=O)N[C@H]3C(=O)N[C@H](C(=O)N[C@H](C(=O)O)c4cc(O)cc(O)c4-c4cc3ccc4O)[C@H](O)c3ccc(c(Cl)c3)Oc3cc2cc(c3O[C@@H]2O[C@H](CO)[C@@H](O)[C@H](O)[C@H]2O[C@H]2C[C@](C)(N)[C@H](O)[C@H](C)O2)Oc2ccc(cc2Cl)[C@H]1O` [vancomycin, reference compound]?
**A.** MIC (C. difficile ATCC43596): 2.5 µg/mL (≈ 1.73 µM); Inhibition of spore germination (C. difficile spores): did not inhibit the spore germination
